Reference: US20230192661A1, “1, 4, 5, 6-TETRAHYDROPYRIMIDINE-2-AMINE DERIVATIVE” (UBE Corporation, priority 2020, published 2023)

target: T1, αvβ6 (Homo sapiens, UniProt P06756+P18564); experiment: αvβ6 cell adhesion inhibition test (HT-29 cells on recombinant human LAP protein); assay type: cell-based; details: recombinant human LAP coating, 200 μM MnCl2, 1 hour, read-out: IC50 (rate of inhibition of cell adhesion, αvβ6)
T1 construct: endogenous in cells; host or cells: HT-29 cells
Method: Test Example 2 was performed by partially modifying the method of Henderson et al. (Nat Med., 19 (12), 1617-24, 2013). In Test Example 2, the same reagents as in Test Example 1 were used unless otherwise specified.
Recombinant human LAP protein (manufactured by R&D Systems, Inc., 246-LP-025) was prepared at […] with PBS, dispensed at 100 μL/well to a 96-well plate, and left standing overnight. The plate was washed with HBSS, then subjected to blocking treatment with DMEM containing 1% BSA, and used as a coated plate in the adhesion test.
HT-29 cells cultured in McCoy's 5A medium (manufactured by Thermo Fisher Scientific, Inc., 16600) containing 10% FBS and 1% penicillin/streptomycin/amphotericin B were recovered and suspended in DMEM containing 0.1% BSA and 200 μM MnCl2 to prepare a cell suspension. A test compound was added thereto.
The cell suspension of 5×10^5 cells/mL containing the test compound was added at 100 μL/well to the coated plate and left standing for 1 hour in a 5% CO2 incubator (37° C.). One hour later, the supernatant was removed, and the plate was washed with HBSS containing 200 μM MnCl2. The cells that adhered to each well in the plate were stained with crystal violet, and the cells were lysed, followed by absorbance measurement. Inhibition without substrate coating was defined as 100% inhibition, and inhibition when DMSO was added instead of the test compound was defined as 0% inhibition. The rate of inhibition of cell adhesion by the test compound was calculated according to the following expression.
Rate of inhibition of cell adhesion (%)=[1−{(Absorbance in the case of adding the test compound)−(Absorbance without substrate coating)}/{(Absorbance in the case of adding DMS)−(Absorbance without substrate coating)}]×100
An IC50 value was calculated from the rate of inhibition of cell adhesion by the test compound. A: IC50<3 nM, B: 3 nM≤IC50<10 nM, C: 10 nM≤IC50<30 nM, D: 30 nM≤IC50<100 nM, or E: IC50≥100 nM.

T1 sequence (P06756 31-889 limits assumed): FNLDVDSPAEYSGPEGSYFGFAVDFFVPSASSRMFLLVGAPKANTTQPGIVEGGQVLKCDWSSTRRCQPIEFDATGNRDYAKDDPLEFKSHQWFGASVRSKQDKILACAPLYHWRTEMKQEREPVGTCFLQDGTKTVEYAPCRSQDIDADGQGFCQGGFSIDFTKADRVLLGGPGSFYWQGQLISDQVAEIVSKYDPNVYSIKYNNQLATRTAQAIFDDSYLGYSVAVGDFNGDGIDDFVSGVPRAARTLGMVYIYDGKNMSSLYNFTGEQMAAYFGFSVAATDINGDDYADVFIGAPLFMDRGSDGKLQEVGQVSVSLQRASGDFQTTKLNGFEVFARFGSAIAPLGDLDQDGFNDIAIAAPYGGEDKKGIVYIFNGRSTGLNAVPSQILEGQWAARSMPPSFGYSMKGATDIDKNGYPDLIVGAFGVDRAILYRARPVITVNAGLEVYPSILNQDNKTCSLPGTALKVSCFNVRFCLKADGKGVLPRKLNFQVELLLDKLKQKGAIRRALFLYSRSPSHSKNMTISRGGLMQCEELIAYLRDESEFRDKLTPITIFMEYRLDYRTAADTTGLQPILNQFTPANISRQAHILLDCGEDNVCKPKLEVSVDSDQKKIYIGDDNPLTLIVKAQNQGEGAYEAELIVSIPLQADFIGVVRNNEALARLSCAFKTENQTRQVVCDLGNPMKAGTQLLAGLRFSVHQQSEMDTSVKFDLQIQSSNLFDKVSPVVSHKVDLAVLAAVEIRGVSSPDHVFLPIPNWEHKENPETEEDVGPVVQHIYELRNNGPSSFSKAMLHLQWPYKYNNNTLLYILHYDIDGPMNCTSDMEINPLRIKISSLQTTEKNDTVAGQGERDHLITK
T1 sequence (P06756 891-1048 limits assumed): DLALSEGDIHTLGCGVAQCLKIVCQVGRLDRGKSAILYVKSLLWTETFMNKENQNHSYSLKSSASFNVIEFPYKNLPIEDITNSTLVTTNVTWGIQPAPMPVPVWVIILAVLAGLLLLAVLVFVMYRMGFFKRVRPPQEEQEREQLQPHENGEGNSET
T1 sequence (P18564 22-788): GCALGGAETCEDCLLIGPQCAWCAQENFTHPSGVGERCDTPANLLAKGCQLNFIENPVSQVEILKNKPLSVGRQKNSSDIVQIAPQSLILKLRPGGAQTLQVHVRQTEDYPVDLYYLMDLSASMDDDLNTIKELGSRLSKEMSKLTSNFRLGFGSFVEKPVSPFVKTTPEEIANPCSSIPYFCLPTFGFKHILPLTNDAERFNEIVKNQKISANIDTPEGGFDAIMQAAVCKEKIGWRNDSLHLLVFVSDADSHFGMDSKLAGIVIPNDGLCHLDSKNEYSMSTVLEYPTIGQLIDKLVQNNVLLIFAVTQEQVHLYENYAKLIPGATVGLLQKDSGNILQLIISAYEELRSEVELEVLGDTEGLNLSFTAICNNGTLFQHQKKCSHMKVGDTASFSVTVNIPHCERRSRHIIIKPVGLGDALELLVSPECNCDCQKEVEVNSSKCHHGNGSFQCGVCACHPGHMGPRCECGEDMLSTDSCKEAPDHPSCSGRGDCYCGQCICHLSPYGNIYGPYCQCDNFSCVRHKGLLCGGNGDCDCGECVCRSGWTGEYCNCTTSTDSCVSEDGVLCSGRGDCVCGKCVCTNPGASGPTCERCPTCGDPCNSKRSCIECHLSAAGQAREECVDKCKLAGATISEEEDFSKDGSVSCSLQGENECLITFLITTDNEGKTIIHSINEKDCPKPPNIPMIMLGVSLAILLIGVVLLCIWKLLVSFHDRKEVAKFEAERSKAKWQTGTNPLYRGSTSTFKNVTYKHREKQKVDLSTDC

`O=C(O)C[C@H](NC(=O)CNC(=O)c1cc(NC2=NCC(F)CN2)c2cn[nH]c2c1)c1cccc(N2CCOCC2)c1` (stereo partly drawn) [Example 45-(b), (3S)-3-(2-(4-((5-fluoro-1,4,5,6-tetrahydropyrimidin-2-yl)amino)-1H-indazole-6-carboxamido)acetamido)-3-(3-morpholinophenyl)propanoic acid] and `O=C(O)C[C@H](NC(=O)CNC(=O)c1cc(NC2=NCC(F)CN2)c2cn[nH]c2c1)c1ccc(C(F)(F)F)cc1` (stereo partly drawn) [Example 47-(b), (3S)-3-(2-(4-((5-fluoro-1,4,5,6-tetrahydropyrimidin-2-yl)amino)-1H-indazole-6-carboxamido)acetamido)-3-(4-(trifluoromethyl)phenyl)propanoic acid] fall in the same range of IC50: 3 to 10 nM for the first, 3 to 10 nM for the second.

`O=C(O)C[C@H](NC(=O)CNC(=O)c1cc(NC2=NCC(F)CN2)c2cn[nH]c2c1)c1ccc(OC(F)F)cc1` (stereo partly drawn) [Example 46-(b), (3S)-3-(4-(difluoromethoxy)phenyl)-3-(2-(4-((5-fluoro-1,4,5,6-tetrahydropyrimidin-2-yl)amino)-1H-indazole-6-carboxamido)acetamido)propanoic acid] and `O=C(O)C[C@H](NC(=O)CNC(=O)c1cc(NC2=NCC(F)CN2)cc2[nH]ncc12)c1cccc(C(F)(F)F)c1` (stereo partly drawn) [Example 56-(b), (3S)-3-(2-(6-((5-fluoro-1,4,5,6-tetrahydropyrimidin-2-yl)amino)-1H-indazole-4-carboxamido)acetamido)-3-(3-(trifluoromethyl)phenyl)propanoic acid] fall in the same range of IC50: 3 to 10 nM for the first, 3 to 10 nM for the second.

`O=C(O)C[C@H](NC(=O)CNC(=O)c1cc(NC2=NCC(F)CN2)c2c(F)n[nH]c2c1)c1cc(Cl)cc(C(F)(F)F)c1` (stereo partly drawn) [Example 48-(b), (3S)-3-(3-chloro-5-(trifluoromethyl)phenyl)-3-(2-(3-fluoro-4-((5-fluoro-1,4,5,6-tetrahydropyrimidin-2-yl)amino)-1H-indazole-6-carboxamido)acetamido) propanoic acid] and `O=C(O)C[C@H](NC(=O)CNC(=O)c1cc(NC2=NCC(F)CN2)c2c(Cl)n[nH]c2c1)c1cc(Cl)cc(C(F)(F)F)c1` (stereo partly drawn) [Example 49-(b), (3S)-3-(2-(3-chloro-4-((5-fluoro-1,4,5,6-tetrahydropyrimidin-2-yl)amino)-1H-indazole-6-carboxamido)acetamido)-3-(3-chloro-5-(trifluoromethyl)phenyl)propanoic acid] cannot be ordered by IC50: under 3 nM for the first, under 3 nM for the second.

`O=C(O)C[C@H](NC(=O)CNC(=O)c1cc(NC2=NCC(O)CN2)c2cn[nH]c2c1)c1cc(Cl)cc(C(F)(F)F)c1` (stereo partly drawn) [Example 50-(b), (3S)-3-(3-chloro-5-(trifluoromethyl)phenyl)-3-(2-(4-((5-hydroxy-1,4,5,6-tetrahydropyrimidin-2-yl)amino)-1H-indazole-6-carboxamido)acetamido)propanoic acid] and `O=C(O)C[C@H](NC(=O)CNC(=O)c1cc(NC2=NCCCN2)c2cn[nH]c2c1)c1cc(Cl)cc(C(F)(F)F)c1` [Example 51-(b), (S)-3-(3-chloro-5-(trifluoromethyl)phenyl)-3-(2-(4-((1,4,5,6-tetrahydropyrimidin-2-yl)amino)-1H-indazole-6-carboxamido)acetamido)propanoic acid] fall in the same range of IC50: 10 to 30 nM for the first, 10 to 30 nM for the second.

`O=C(O)C[C@H](NC(=O)CNC(=O)c1cc(NC2=NCC(F)CN2)cc2[nH]ncc12)c1cc(Cl)cc(C(F)(F)F)c1` (stereo partly drawn) [Example 52-(b), (3S)-3-(3-chloro-5-(trifluoromethyl)phenyl)-3-(2-(6-((5-fluoro-1,4,5,6-tetrahydropyrimidin-2-yl)amino)-1H-indazole-4-carboxamido)acetamido)propanoic acid] and `O=C(O)C[C@H](NC(=O)CNC(=O)c1cc(NC2=NCC(F)CN2)cc2[nH]ncc12)c1cc(Br)cc(C(F)(F)F)c1` (stereo partly drawn) [Example 53-(b), (3S)-3-(3-bromo-5-(trifluoromethyl)phenyl)-3-(2-(6-((5-fluoro-1,4,5,6-tetrahydropyrimidin-2-yl)amino)-1H-indazole-4-carboxamido)acetamido)propanoic acid] cannot be ordered by IC50: under 3 nM for the first, under 3 nM for the second.

`O=C(O)C[C@H](NC(=O)CNC(=O)c1cc(NC2=NCC(F)CN2)cc2[nH]ncc12)c1cc(I)cc(C(F)(F)F)c1` (stereo partly drawn) [Example 54-(b), (3S)-3-(2-(6-((5-fluoro-1,4,5,6-tetrahydropyrimidin-2-yl)amino)-1H-indazole-4-carboxamido)acetamido)-3-(3-iodo-5-(trifluoromethyl)phenyl)propanoic acid] and `O=C(O)C[C@H](NC(=O)CNC(=O)c1cc(NC2=NCC(F)CN2)cc2[nH]ncc12)c1ccc(F)c(C(F)(F)F)c1` (stereo partly drawn) [Example 55-(b), (3S)-3-(2-(6-((5-fluoro-1,4,5,6-tetrahydropyrimidin-2-yl)amino)-1H-indazole-4-carboxamido)acetamido)-3-(4-fluoro-3-(trifluoromethyl)phenyl)propanoic acid] cannot be ordered by IC50: under 3 nM for the first, under 3 nM for the second.
